Source: US11028090B2 (Dong Wha Pharm. Co., Ltd., priority 2017, dated 2021)
pIC50: −log10 of the molar value. Read-outs that look alike come from different tables or passages of the source.

Key:
[1] = target: BRD4 (BD1+BD2) bromodomain (Homo sapiens (Human), UniProt O60885); test: BRD4 binding inhibition (AlphaScreen, GST-BRD4 vs tetraacetylated histone H4 peptide)
Procedure, shortened: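 GST-BRD4 (BD1+BD2) and biotinylated tetraacetyl-histone H4 peptide, each at 100 nM in HEPES pH 7.4 buffer with BSA and DTT, were combined with compound. Glutathione acceptor and streptavidin donor beads were added, then incubated 30 min at room temperature in the dark. Read-out was AlphaScreen signal.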

[2] = tested on: thymus cancer cells (Ty-82 cells); test: Cytotoxicity to thymus cancer cells (Ty-82 cells), WST-1; conditions: Homo sapiens, TY82, 72 h
Experimental: The following experiment was performed to evaluate the cytotoxicity of [1,2,4]triazolo[4,3-a]quinoxaline derivative according to the present invention to thymus cancer cells (Ty-82 cells).
First, thymus cancer cells (Ty-82 cells) were distributed in a 96 well plate at the density of 2.5×10^4 cells/well. 24 hours later, the plated cells were treated with the compounds of the present invention dissolved in DMSO at the different concentrations ranging from 0.01 μM to 10 μM. 72 hours later, the activities of the compounds were determined using WST-1 reagent.

[3] = tested on: acute myelogenous leukemia cells (MV-4-11 cells); test: Cytotoxicity to acute myelogenous leukemia cells (MV-4-11 cells), CCK-8; conditions: Homo sapiens, MV4-11, 72 h
[4] = GST-BRD4 (BD1+BD2) / biotinylated acetyl-histone H4 (Lys5,8,12,16) peptide, read-out: IC50, BRD4 binding inhibition
[5] = read-out: Ty-82 Cytotoxicity IC50
[6] = GST-BRD4 (BD1+BD2) vs biotinylated acetyl-histone H4 peptide, AlphaScreen, read-out: BRD4 IC50
[7] = read-out: IC50, cytotoxicity against thymus cancer cells
[8] = read-out: IC50, cytotoxicity against acute myelogenous leukemia cells
[9] = read-out: MV-4-11 Cytotoxicity IC50

SMILES	pIC50 [1, 4]	pIC50 [1, 6]	pIC50 [2, 5]	pIC50 [2, 7]	pIC50 [3, 8]	pIC50 [3, 9]
Cc1nnc2c(NCCCCNC(=O)c3ccccc3)nc3cc(C(=O)NC(C)C)ccc3n12 [Example 205, 4-(4-benzoylamino-butylamino)-1-methyl-[1,2,4]triazolo[4,3-a]quinoxaline-7-carboxylic acid isopropylamide]		7.12	6.26			
COc1cccc2c1nc(NCCCCNC(=O)OCC(C)C)c1nnc(C)n12 [Example 120, N-[4-(6-methoxy-1-methyl-[1,2,4]triazolo[4,3-a]quinoxaline-4-ylamino)-butyl]-carbamic acid isobutylester]	≥ 7.30	7.47	6.21			
Cc1nnc2c(NCCCCNC(=O)c3ccccc3)nc3cc(NC(=O)C(C)C)ccc3n12 [Example 248, N-[4-(7-isobutyramido-1-methyl-[1,2,4]triazolo[4,3-a]quinoxaline-4-ylamino)-butyl]-benzamide]		7.27	6.29			
COc1cc2nc(NCCCCNC(=O)OC(C)(C)C)c3nnc(C)n3c2cc1C [Example 464, [4-(7-methoxy-1,8-dimethyl-[1,2,4]triazolo[4,3-a]quinoxaline-4-ylamino)-butyl]-carbamic acid-tert-butylester]		7.21	6.10			
CC(=O)Nc1ccc2c(c1)nc(NCCCCNC(=O)c1ccccc1)c1nnc(C)n12 [Example 251, N-[4-(7-acetylamino-methyl-[1,2,4]triazolo[4,3-a]quinoxaline-4-ylamino)-butyl]-benzamide]	≥ 7.30		6.17			
COc1ccc2nc(NCCCCNC(=O)c3ccc(C)nc3Cl)c3nnc(C)n3c2c1 [Example 129]	≥ 7.30	7.77	6.08			
COc1c(C)ccc2c1nc(NCCCCNC(=O)OC(C)C)c1nnc(C)n12 [Example 133, [4-(6-methoxy-1,7-dimethyl-[1,2,4]triazolo[4,3-a]quinoxaline-4-ylamino)-butyl]-carbamic acid isopropylester]	≥ 7.30	7.47	6.06			
COCCOc1cc2nc(NCCCCNC(=O)c3ccccc3Cl)c3nnc(C)n3c2cc1OCCOC [Example 171, N-{4-[7,8-bis-(2-methoxy-ethoxy)-1-methyl-[1,2,4]triazolo[4,3-a]quinoxaline-4-ylamino]-butyl}-2-chloro-benzamide]	≥ 7.30	7.59	6.24			
COc1cc2nc(NCCCCNC(=O)CCC3CCCC3)c3nnc(C)n3c2cc1OC [Example 81, 3-cyclopentyl-N-[4-(7,8-dimethoxy-1-methyl-[1,2,4]triazolo[4,3-a]quinoxaline-4-ylamino)-butyl]-propionamide]	≥ 8.00	8.00			≥ 6.70	7.00
Cc1nnc2c(NCCCCNC(=O)OC(C)C)nc3cc(N4CCOCC4)ccc3n12 [Example 506, [4-(1-methyl-7-morpholine-4-yl-[1,2,4]triazolo[4,3-a]quinoxaline-4-ylamino)-butyl]-carbamic acid isopropylester]	≥ 7.30	7.82				6.47
COc1cc2nc(NCCCCNC(=O)c3ccc(F)cc3)c3nnc(C)n3c2cc1OC [Example 98, N-[4-(7,8-dimethoxy-1-methyl-[1,2,4]triazolo[4,3-a]quinoxaline-4-ylamino)-butyl]-4-fluoro-benzamide]	≥ 7.30	7.33				6.08
Cc1nnc2c(NCCCCNC(=O)OC(C)C)nc3cc4c(cc3n12)OCCO4 [Example 188, [4-(1-methyl-8,9-dihydro-7,10-dioxa-2,3,5,11b-tetraaza-cyclopenta[a]anthracene-4-ylamino)-butyl]-carbamic acid isopropylester]	≥ 7.30	7.60			≥ 6.70	6.77

Continued, in another order:

pIC50 [1, 4]	pIC50 [1, 6]	SMILES	pIC50 [2, 5]	pIC50 [2, 7]	pIC50 [3, 8]	pIC50 [3, 9]
≥ 7.30		Cc1nnc2c(NCCCCNC(=O)OC(C)C)nc3ccccc3n12 [Example 4, [4-(1-methyl-[1,2,4]triazolo[4,3-a]quinoxaline-4-ylamino)-butyl]-carbamic acid isopropylester]	6.19			
≥ 7.30	7.44	Cc1nnc2c(NCCCCC(=O)NCC(C)C)nc3ccccc3n12 [Example 660, 5-(1-methyl-[1,2,4]triazolo[4,3-a]quinoxaline-4-ylamino)-pentanoic acid isobutylamide]	6.08			
≥ 7.30	7.74	Cc1nnc2c(NCCCCNC(=O)OC(C)(C)C)nc3cc(C(=O)NCc4ccccc4)ccc3n12 [Example 210, [4-(7-benzylcarbamoyl-1-methyl-[1,2,4]triazolo[4,3-a]quinoxaline-4-ylamino)-butyl]-carbamic acid-tert-butylester]	6.12			
≥ 7.30	7.70	Cc1nnc2c(NCCCCNC(=O)CC(C)C)nc3ccccc3n12 [Example 7, 3-methyl-N-[4-(1-methyl-[1,2,4]triazolo[4,3-a]quinoxaline-4-ylamino)-butyl]-butyramide]	6.59	≥ 6.30		
≥ 7.30	7.51	Cc1nnc2c(NCCCCNC(=O)C(C)(C)C)nc3cc(NC(=O)C(C)C)ccc3n12 [Example 247, N-[4-(7-isobutyramido-1-methyl-[1,2,4]triazolo[4,3-a]quinoxaline-4-ylamino)-butyl]-2,2-dimethyl-propionamide]	6.40	≥ 6.30		
≥ 7.30	7.34	COc1ccc2nc(NCCCCNC(=O)c3ccccc3)c3nnc(C)n3c2c1 [Example 127, N-[4-(8-methoxy-1-methyl-[1,2,4]triazolo[4,3-a]quinoxaline-4-ylamino)-butyl]-benzamide]	6.21			
	7.24	Cc1nnc2c(NCCCCNC(=O)c3ccccc3Cl)nc3ccccc3n12 [Example 12]	6.07			
≥ 7.30	7.62	Cc1nnc2c(NCCCCNC(=O)CC(C)(C)C)nc3ccccc3n12 [Example 8, 3,3-dimethyl-N-[4-(1-methyl-[1,2,4]triazolo[4,3-a]quinoxaline-4-ylamino)-butyl]-butyramide]	6.07			
≥ 7.30		CC(=O)Nc1ccc2c(c1)nc(NCCCCNC(=O)OC(C)(C)C)c1nnc(C)n12 [Example 249, [4-(7-acetylamino-methyl-[1,2,4]triazolo[4,3-a]quinoxaline-4-ylamino)-butyl]-carbamic acid-tert-butylester]	6.40	≥ 6.30		
≥ 8.00	8.15	COc1ccc2c(c1)nc(NCCCCNC(=O)[C@@H](O)C(C)C)c1nnc(C)n12 [Example 299, 2-(S)-hydroxy-N-[4-(7-methoxy-1-methyl-[1,2,4]triazolo[4,3-a]quinoxaline-4-ylamino)-butyl]-3-methyl-butyramide]				6.43
≥ 8.00	8.22	Cc1nnc2c(NCCCCNC(=O)[C@@H](O)C(C)C)nc3cc(-c4nc5ccccc5n4C)ccc3n12 [Example 234, 2-(S)-hydroxy-3-methyl-N-{4-[1-methyl-7-(1-methyl-1H-benzoimidazole-2-yl)-[1,2,4]triazolo[4,3-a]quinoxaline-4-ylamino]-butyl}-butyramide]			≥ 6.70	7.33
